Reference: patent US9750714B2, “Pharmaceutical use of 3, 4-bis-benzylsulfonylbutyronitrile” (Olatec Therapeutics LLC, priority 2013, dated 2017)

How the values were obtained:
[1] = tested on: arachidonic acid-induced ear swelling; experiment: topical arachidonic acid-induced ear swelling model in mice; assay type: in vivo
Protocol: The test compound, indomethacin (positive control), and vehicle were evaluated for anti-inflammatory activity in a topical arachidonic acid-induced ear swelling model in mice. Male ICR mice weighing 22±2 g were used and randomly divided; the test compound and vehicle control had 10 mice, and indomethacin had 5 mice. Arachidonic Acid (0.5 mg in 20 μl of acetone:ethanol/1:1) was applied topically to the anterior and posterior surfaces of the right ear of each mouse. Test substances and vehicle, as listed in Table 2 were similarly applied 30 min before and 15 min after arachidonic acid application. The thickness of the right ear and the left ear was measured and the difference calculated as an indication of the inflammation in the right ear. Ear swelling was measured by a Dyer model micrometer gauge at 60 and 90 minutes after arachidonic acid application as an index of inflammation. Percent inhibition was calculated according to the formula: Ic−It/Ic×100, where Ic and It refers to increase of ear thickness (mm) in control and treated mice, respectively. ANOVA and Dunnett's test were employed to ascertain significant difference between vehicle control and treated groups. Significance is set at P<0.05 level.

[2] = tested on: tail flick response to heat stimulus; experiment: tail flick test in mice (49° C. water bath); assay type: in vivo
Protocol: The tail flick test is a test of the pain response in animals. The tail flick test is used in basic pain research and to measure the effectiveness of analgesics, by observing the tail flick reaction to heat in an animal. This test assesses the nociceptive response to a local pain stimulus, and the ability of a drug to inhibit this response.
Vehicle control (DMSO) and test compound 3, 4-bis-benzylsulfonylbutanenitrile in DMSO were administered by oral gavage to mice with a volume of 5 mL/kg, immediately prior to testing, at time zero. The test compound was administered at a dosage of 500 mg/kg in DMSO. Positive control morphine in water was administered at time zero by subcutaneous injection at 8 mg/kg to mice. […] The purpose of morphine is […] to serve as a comparison with the test compound. Each group had 10 mice.
The response of mice to heat stimulus was evaluated by measuring the time of tail-flick or tail-flick latency from 49° C. water bath. Briefly, the animal was held with its tail hanging down. Approximately 2 inches of the tail was immersed in a beaker of water at 38±1° C. for about 30 seconds, and this was done twice to acclimate the animal to the procedure.
Subsequently, approximately 2 inches of the tail was immersed in a beaker of water at 49±1° C., at which point a timer was started.
Tail flick measurements were made at 0, 30, 60, and 120 minutes post administration of the dosage of test compound, vehicle, or morphine. An ANOVA was done, and if p<0.05, a Dunnett's t test was employed to calculate significant difference between vehicle control and test compound treated groups. A pairwise Student's t test was used to calculate differences between the morphine group and the control group. […] Analysis with p-values<0.05 is considered significant.

COc1ccc2c(c1)c(CC(=O)O)c(C)n2C(=O)c1ccc(Cl)cc1 [Indomethacin, reference compound]
% Inhibition of ear swelling ([1]; topical, applied 30 min before and 15 min after arachidonic acid, measured at 90 minutes, relative to vehicle, indomethacin 14 mM (0.1 mg/20 μL), test compound 375 mM (2.8 mg/20 μL)): 58%

N#CCC(CS(=O)(=O)Cc1ccccc1)S(=O)(=O)Cc1ccccc1 (stereo not drawn) [3,4-bis-benzylsulfonylbutanenitrile, 3,4-bis-benzylsulfonylbutanenitrile]
tail flick latency compared with vehicle-treated mice ([2]; test compound 500 mg/kg in DMSO, oral, 120 minutes post dosing): statistically significant | anti-inflammatory activity in the mouse ear swelling model (in words) ([1]; applied topically, inflammation induced by arachidonic acid): anti-inflammatory

CN1CC[C@]23c4c5ccc(O)c4O[C@H]2[C@@H](O)C=C[C@H]3[C@H]1C5 [morphine]
tail flick latency compared with vehicle-treated mice ([2]; morphine 8 mg/kg subcutaneous, 30 minutes post dosing): statistically significant | tail flick latency compared with vehicle-treated mice ([2]; morphine 8 mg/kg subcutaneous, 60 minutes post dosing): statistically significant | tail flick latency compared with vehicle-treated mice ([2]; morphine 8 mg/kg subcutaneous, 120 minutes post dosing): not
